Columns and labels:
Assay type in all cases: cell-based
Settings in all cases: HEK-293-EBNA stable transfectants
[1] = target: T1, hTP (Homo sapiens, UniProt P21731); assay: Functional data, human recombinant TP receptor stable transfectants
T1 construct: expressed in transfected cells; host or cells: HEK-293-EBNA
T1 sequence (P21731 1-343): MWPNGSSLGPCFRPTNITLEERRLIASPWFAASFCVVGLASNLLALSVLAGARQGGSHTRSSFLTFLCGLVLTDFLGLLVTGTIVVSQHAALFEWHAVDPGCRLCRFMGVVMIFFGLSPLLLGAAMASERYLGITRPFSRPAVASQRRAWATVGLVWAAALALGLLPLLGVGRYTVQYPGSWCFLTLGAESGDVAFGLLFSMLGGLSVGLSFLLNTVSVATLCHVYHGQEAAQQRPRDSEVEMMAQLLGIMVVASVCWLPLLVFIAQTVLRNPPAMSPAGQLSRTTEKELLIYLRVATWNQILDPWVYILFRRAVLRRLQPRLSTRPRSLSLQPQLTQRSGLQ
Method: (§1) Human Recombinant EP1, EP2, EP3, EP4, FP, TP, IP and DP Receptors: Stable Transfectants.
(§2) Plasmids encoding the human EP1, EP2, EP3, EP4, FP, TP, IP and DP receptors were prepared by cloning the respective coding sequences into the eukaryotic expression vector pCEP4 (Invitrogen). The pCEP4 vector contains an Epstein Barr virus (EBV) origin of replication, which permits episomal replication in primate cell lines expressing EBV nuclear antigen (EBNA-1). It also contains a hygromycin resistance gene that is used for eukaryotic selection. The cells employed for stable transfection were human embryonic kidney cells (HEK-293) that were transfected with and express the EBNA-1 protein. These HEK-293-EBNA cells (Invitrogen) were grown in medium containing Geneticin (G418) to maintain expression of the EBNA-1 protein. HEK-293 cells were grown in DMEM with 10% fetal bovine serum (FBS), 250 μg ml^−1 G418 (Life Technologies) and 200 μg ml^−1 gentamicin or penicillin/streptomycin.
(§3) For transfection, the cells were grown to 50-60% confluency on 10 cm plates. The plasmid pCEP4 incorporating cDNA inserts for the respective human prostanoid receptor (20 μg) was added to 500 μl of 250 mM CaCl2. HEPES buffered saline×2 (2×HBS, 280 mM NaCl, 20 mM HEPES acid, 1.5 mM Na2 HPO4, pH 7.05-7.12) was then added dropwise to a total of 500 μl, with continuous-vortexing at room temperature. After 30 min, 9 ml DMEM were added to the mixture. The DNA/DMEM/calcium phosphate mixture was then added to the cells, which had been previously rinsed with 10 ml PBS. The cells were then incubated for 5 hr at 37° C. in humidified 95% air/5% CO2. The calcium phosphate solution was then removed and the cells were treated with 10% glycerol in DMEM for 2 min. The glycerol solution was then replaced by DMEM with 10% FBS. The cells were incubated overnight and the medium was replaced by DMEM/10% FBS containing 250 μg ml^−1 G418 and penicillin/streptomycin. The following day hygromycin B was added to a final concentration of 200 μg ml^−1.
(§4) Ten days after transfection, hygromycin B resistant clones were individually selected and transferred to a separate well on a 24 well plate. At confluence each clone was transferred to one well of a 6 well plate, and then expanded in a 10 cm dish. Cells were maintained under continuous hygromycin selection until use.

[2] = target: T2, hEP3A (Homo sapiens, UniProt P43115); assay: Functional data, human recombinant EP3 receptor stable transfectants
T2 construct: expressed in transfected cells; host or cells: HEK-293-EBNA
T2 sequence (P43115 1-390): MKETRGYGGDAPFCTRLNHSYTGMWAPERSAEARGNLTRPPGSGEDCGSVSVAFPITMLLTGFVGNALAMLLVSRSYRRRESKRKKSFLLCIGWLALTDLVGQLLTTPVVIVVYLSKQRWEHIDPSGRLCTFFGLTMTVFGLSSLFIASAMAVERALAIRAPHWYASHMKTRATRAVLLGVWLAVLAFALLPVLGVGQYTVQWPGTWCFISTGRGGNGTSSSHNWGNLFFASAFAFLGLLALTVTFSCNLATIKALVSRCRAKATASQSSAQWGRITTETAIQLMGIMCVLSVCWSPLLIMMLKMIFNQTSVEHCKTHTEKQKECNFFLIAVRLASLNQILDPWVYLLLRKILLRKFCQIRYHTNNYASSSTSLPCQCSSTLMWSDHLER
Method: as §1, §2
(§5) For transfection, the cells were grown to 50-60% confluency on 10 cm plates. The plasmid pCEP4 incorporating cDNA inserts for the respective human prostanoid receptor (20 μg) was added to 500 μl of 250 mM CaCl2. HEPES buffered saline×2 (2×HBS, 280 mM NaCl, 20 mM HEPES acid, 1.5 mM Na2 HPO4, pH 7.05-7.12) was then added dropwise to a total of 500 μl, with continuous-vortexing at room temperature. […]

[3] = target: T3, hEP4 (Homo sapiens, UniProt P35408); assay: Functional data, human recombinant EP4 receptor stable transfectants
T3 construct: expressed in transfected cells; host or cells: HEK-293-EBNA
T3 sequence (P35408 whole entry): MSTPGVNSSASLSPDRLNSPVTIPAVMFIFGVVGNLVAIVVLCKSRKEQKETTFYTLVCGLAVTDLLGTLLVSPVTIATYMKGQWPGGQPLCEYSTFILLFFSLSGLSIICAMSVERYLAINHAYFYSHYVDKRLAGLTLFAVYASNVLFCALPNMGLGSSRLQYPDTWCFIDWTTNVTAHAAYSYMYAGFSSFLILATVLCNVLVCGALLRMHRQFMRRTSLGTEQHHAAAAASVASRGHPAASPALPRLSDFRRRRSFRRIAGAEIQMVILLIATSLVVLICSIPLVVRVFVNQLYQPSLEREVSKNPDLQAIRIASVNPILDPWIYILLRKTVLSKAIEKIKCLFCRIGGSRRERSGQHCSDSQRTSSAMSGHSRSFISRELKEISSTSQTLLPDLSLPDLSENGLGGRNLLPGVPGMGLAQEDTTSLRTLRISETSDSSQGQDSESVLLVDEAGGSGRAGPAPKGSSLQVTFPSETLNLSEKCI
Method: as §1, §2, §3, §4

[4] = target: T4, hEP1 (Homo sapiens, UniProt P34995); assay: Functional data, human recombinant EP1 receptor stable transfectants
T4 construct: expressed in transfected cells; host or cells: HEK-293-EBNA
T4 sequence (P34995 1-402): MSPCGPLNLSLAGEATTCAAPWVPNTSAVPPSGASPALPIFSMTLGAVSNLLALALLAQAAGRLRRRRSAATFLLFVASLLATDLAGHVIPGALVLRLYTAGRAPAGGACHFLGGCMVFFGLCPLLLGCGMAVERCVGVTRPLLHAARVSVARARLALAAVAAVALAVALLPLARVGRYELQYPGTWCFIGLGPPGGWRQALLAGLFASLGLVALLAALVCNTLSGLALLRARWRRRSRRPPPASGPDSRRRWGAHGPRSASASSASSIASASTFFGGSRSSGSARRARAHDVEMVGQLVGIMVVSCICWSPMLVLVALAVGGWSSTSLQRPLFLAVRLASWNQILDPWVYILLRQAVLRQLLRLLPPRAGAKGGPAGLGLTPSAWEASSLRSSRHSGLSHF
Method: as §1, §2, §5

[5] = target: T5, hEP2 (Homo sapiens, UniProt P43116); assay: Functional data, human recombinant EP2 receptor stable transfectants
T5 construct: expressed in transfected cells; host or cells: HEK-293-EBNA
T5 sequence (P43116 whole entry): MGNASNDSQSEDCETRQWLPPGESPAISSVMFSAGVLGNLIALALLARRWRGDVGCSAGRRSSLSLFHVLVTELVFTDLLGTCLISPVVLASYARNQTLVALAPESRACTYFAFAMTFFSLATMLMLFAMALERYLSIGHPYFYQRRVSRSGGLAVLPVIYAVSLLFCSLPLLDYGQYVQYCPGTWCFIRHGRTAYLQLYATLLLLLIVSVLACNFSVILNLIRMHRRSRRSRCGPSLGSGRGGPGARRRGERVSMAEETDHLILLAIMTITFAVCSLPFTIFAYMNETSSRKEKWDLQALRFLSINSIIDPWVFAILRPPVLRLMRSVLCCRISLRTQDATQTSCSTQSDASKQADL
Method: as §1, §2, §5

SMILES | EC50 [1] [nM] | EC50 [3] [nM] | also measured
COC(=O)COCCCCN1C(=O)CCC[C@@H]1/C=C/C(=O)Cc1ccccc1 [Example 1, {4-[(R)-2-Oxo-6-((E)-3-oxophenyl-but-1-enyl)-piperidin-1-yl]-butoxy}-Acetic acid methyl ester] | > 10000 | – | –
O=C(O)COCCCCN1C(=O)CCC[C@@H]1/C=C/C(=O)Cc1ccccc1 [Example 2, {4-[(R)-2-Oxo-6-((E)-3-oxo-4-phenyl-but-1-enyl)-piperidin-1-yl]-butoxy}-acetic acid] | 2260 | 300 | EC50 [2]: > 10000 nM
COC(=O)COCCCCN1C(=O)CCC[C@@H]1/C=C/C(O)Cc1ccccc1 (stereo partly drawn) [Example 3, {4-[(R)-2-((E)-3-Hydroxy-4-phenyl-but-1-enyl)-6-oxo-piperidin-1-yl]-butoxy}-acetic acid methyl ester] | – | 1100 | –
O=C(O)COCCCCN1C(=O)CCC[C@@H]1/C=C/C(O)Cc1ccccc1 (stereo partly drawn) [Example 4, {4-[(R)-2-((E)-3-Hydroxy-4-phenyl-but-1-enyl)-6-oxo-piperidin-1-yl]-butoxy}-acetic acid] | – | 145 | –
COC(=O)COCCCCN1C(=O)CCC[C@@H]1CCC(O)Cc1ccccc1 (stereo partly drawn) [Example 5, {4-[(R)-2-(3-Hydroxy-4-phenyl-butyl)-6-oxo-piperidin-1-yl]-butoxy}-acetic acid methyl ester] | – | > 10000 | EC50 [2]: > 10000 nM
O=C(O)COCCCCN1C(=O)CCC[C@@H]1CCC(O)Cc1ccccc1 (stereo partly drawn) [Example 6, {4-[(R)-2-(3-Hydroxy-4-phenyl-butyl)-6-oxo-piperidin-1-yl]-butoxy}-acetic acid] | – | > 10000 | –
O=C(O)COC/C=C\CN1C(=O)CCC[C@@H]1/C=C/C(=O)Cc1ccccc1 [Example 8, {(Z)-4-[(R)-2-Oxo-6-((E)-3-oxo-4-phenyl-but-1-enyl)-piperidin-1-yl]-but-2-enyloxy}-acetic acid] | > 10000 | 2560 | –
COC(=O)COCCCCN1C(=O)CCC[C@@H]1CCC(=O)Cc1ccccc1 [Example 9, {4-[(R)-2-Oxo-6-(3-oxo-4-phenyl-butyl)-piperidin-1-yl]-butoxy}-acetic acid methyl ester] | – | 7540 | –
O=C(O)COCCCCN1C(=O)CCC[C@@H]1CCC(=O)Cc1ccccc1 [Example 10, {4-[(R)-2-Oxo-6-(3-oxo-4-phenyl-butyl)-piperidin-1-yl]-butoxy}-acetic acid] | > 10000 | 1970 | –
O=C(O)COC/C=C\CN1C(=O)CCC[C@@H]1/C=C/C(O)Cc1ccccc1 (stereo partly drawn) [Example 12, {(Z)-4-[(R)-2-((E)-3-Hydroxy-4-phenyl-but-1-enyl)-6-oxo-piperidin-1-yl]-but-2-enyloxy}-acetic acid] | – | > 10000 | –
O=C(O)COC/C=C\CN1C(=O)CCC[C@@H]1CCC(=O)Cc1ccccc1 [Example 14, {(Z)-4[(R)-2-Oxo-6-(3-oxo-4-phenyl-butyl)-piperidin-1-yl]-but-2-enyloxy}-acetic acid] | > 10000 | > 10000 | –
O=C(O)COC/C=C\CN1C(=O)CCC[C@@H]1CCC(O)Cc1ccccc1 (stereo partly drawn) [Example 16, {(Z)-4-[(R)-2-(3-Hydroxy-4-phenyl-butyl)-6-oxo-piperidin-1-yl]-but-2-enyloxy}-acetic acid] | – | > 10000 | –
O=C(O)COCCCCN1C(=O)CCC[C@@H]1/C=C/C(O)Cc1cccc(Cl)c1 (stereo partly drawn) [Example 17, (4-{(R)-2-[(E)4(3-Chlorophenyl)-3-hydroxy-but-1-enyl]-6-oxo-piperidin-1-yl}-butoxy)-acetic acid] | – | – | EC50 [4]: > 10000 nM; EC50 [5]: > 10000 nM
NC(=O)COCCCCN1C(=O)CCC[C@@H]1/C=C/C(O)Cc1cccc(Cl)c1 (stereo partly drawn) [Example 18, 2-(4-{(R)-2-[(E)-4-(3-Chlorophenyl)-3-hydroxy-but-1 enyl]-6-oxo-piperidin-1-yl}-butoxy)-acetamide] | > 10000 | – | –

From US6977260B2, “Piperidinyl prostaglandin E analogs” (Allergan, Inc., priority 2004, dated 2005)
